The nature of the test: Tb3+/DPA microwell plate leakage assay. Particulars: positive control, complete dissolution of membranes. Here is the method:
The Tb^3+/DPA assay, a high throughput leakage assay developed by Rausch and Wimley, 2001, was employed in order to determine each LLP peptide's ability to disturb lipid membrane integrity. […] To this end, Tb^3+ was entrapped in Large Unilamellar Vesicles composed of 10% POPG: 90% POPC diluted in a KPO4 buffer containing DPA. Only upon membrane disruption was terbium able to come into contact with DPA in the buffer generating a fluorescent complex. Various ratios of peptide:lipid were incubated together in a microwell plate and the resulting fluorescence emissions were monitored under UV irradiation. LLP -1, -2, and -1D peptides used in this study were not NBD labeled, but were N-terminally labeled with a tryptophan residue for quantification.
To prepare Tb^3+ LUVs, lipids were resuspended to 100 mM concentration in 50 mM Tb^3+, 100 mM sodium citrate, 10 mM TES pH 7.2. Gel Filtration on Sephadex G-200 was used to elute LUVs and remove unencapsulated Tb^3+ in a buffer of 10 mM TES and 325 mM NaCl. Final lipid concentrations were determined by phosphate analysis. […] Finally, samples were heated in a water bath with AmMo and ascorbic acid for 10–15 minutes and absorbance at 660 nm was measured. Concentrations were determined by comparison to a standard curve generated using known KPO4 concentrations. […]

Take Triton X-100: the leakage of vesicles amounted to 100%.

Values taken from PMC2211469, “Viroporin potential of the lentivirus lytic peptide (LLP) domains of the HIV-1 gp41 protein” (Virology Journal, 2007).
